Tests used:
LPA5 receptor [1] = molecular target: T1, LPA5 receptor (Homo sapiens (Human), UniProt Q9H1C0); settings: reported, cited from earlier work
LPA5 receptor [2] = molecular target: T1, LPA5 receptor; test: In vitro LPA5 receptor assay (LPA-driven intracellular calcium release, FLIPR); format: cell-based; settings: RH7777 cells expressing human LPA5 receptors; LPA at EC90
human LPA1 receptors = human LPA1 receptors (Homo sapiens (Human), UniProt Q92633); test: In vitro LPA1 receptor assay (LPA-driven intracellular calcium release, FLIPR); format: cell-based; settings: RH7777 cells expressing human LPA1 receptors; LPA at EC80
Chain of human LPA1 receptors (Q92633 whole entry): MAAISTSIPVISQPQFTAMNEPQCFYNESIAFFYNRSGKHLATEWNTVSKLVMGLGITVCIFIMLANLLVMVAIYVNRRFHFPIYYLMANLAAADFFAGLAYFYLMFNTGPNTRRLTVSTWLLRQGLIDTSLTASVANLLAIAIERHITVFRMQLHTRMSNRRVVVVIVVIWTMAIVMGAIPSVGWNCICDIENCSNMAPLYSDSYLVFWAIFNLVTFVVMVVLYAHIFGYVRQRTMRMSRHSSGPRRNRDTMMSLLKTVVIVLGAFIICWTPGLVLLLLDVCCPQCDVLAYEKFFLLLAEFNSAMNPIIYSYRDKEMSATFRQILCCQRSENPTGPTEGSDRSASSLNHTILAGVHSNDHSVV

[3] = In vivo bleomycin induced scleroderma model; set-up: species or system C57BL/6 mice; settings: mice, bleomycin i.d.
Procedure: In Vivo Bleomycin Induced Scleroderma Model Experimental Outline
Adult male C57BL/6 mice, aged 8-10 weeks, were assigned to groups and allowed to acclimatise for a week. On Day −1, the back skin of the animals was shaved. From Day 0, animals were administered with 100 μl of a 1 mg/ml solution of bleomycin sulphate in phosphate buffered saline (PBS) by intradermal injection in the shaved skin. Injections were repeated in a one square centimeter area every other day for four weeks. A group of ten animals (Control group) was injected with an identical volume of PBS. Animals were weighed at the beginning of the experiment on Day 0 and then twice weekly throughout the study. At the end of the experiment, on Day 28, animals were culled and samples of back skin were taken for further analysis. All groups were n=10; the vehicle was distilled water and the administration volume was 10 ml/kg for oral gavage (p.o.); administration volume was 25 μl for topical application.
Bodyweights were graphed along with the standard error of the mean (SEM); Skin samples (two punch biopsies per animal, 4 mm in diameter each) samples were hydrolyzed and hydroxyproline content of the samples was determined from analysis in a semi-automated process using a continuous flow analyzer. Autoanalyser readings were calibrated against hydroxyproline standards and collagen content calculated. […] Bleomycin administration induced a highly significant increase in skin collagen content when compared to the control, saline-injected, group (p<0.01).

T1 sequence (Q9H1C0 whole entry): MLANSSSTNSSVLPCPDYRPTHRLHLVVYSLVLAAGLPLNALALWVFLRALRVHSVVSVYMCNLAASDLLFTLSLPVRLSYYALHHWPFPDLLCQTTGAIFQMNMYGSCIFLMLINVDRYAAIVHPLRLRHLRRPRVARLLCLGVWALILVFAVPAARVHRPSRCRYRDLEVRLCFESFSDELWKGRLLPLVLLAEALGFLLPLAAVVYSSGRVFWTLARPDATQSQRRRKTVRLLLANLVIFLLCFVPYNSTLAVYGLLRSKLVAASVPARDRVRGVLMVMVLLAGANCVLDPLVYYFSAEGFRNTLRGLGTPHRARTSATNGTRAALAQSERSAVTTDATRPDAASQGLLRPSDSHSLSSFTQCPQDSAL

CC(C)=CCC/C(C)=C/CC/C(C)=C/COP(=O)(O)OP(=O)(O)O [Farnesyl pyrophosphate]
EC50 (LPA5 receptor [1]; LPA5 receptor, read-out: in-vitro EC50): 49 nM | selectivity over other LPA receptors (LPA5 receptor [1]): 3 fold

O=C(O)c1ccc(CN(CC2CC2)C(=O)c2ccc(Oc3ccccc3F)cc2)cc1 [Example 5, 4-((N-(Cyclopropylmethyl)-4-(2-fluorophenoxy)benzamido)-methyl)benzoic acid]
IC50 (LPA5 receptor [2]): 16 nM | IC50 (human LPA1 receptors): 46 nM | bodyweight loss compared to the vehicle-treated group ([3]; 30 mg/kg p.o. BID): did not differ | skin collagen content compared to the vehicle-treated group ([3]; treatment from Day 0 to Day 28): significant reduction | skin collagen content compared to the vehicle-treated group ([3]; treatment from Day 14 to Day 28, 30 mg/kg p.o. BID): significant reduction
